17 compounds from ChEMBL document CHEMBL2151026, “Comparative study on antioxidant capacity of flavonoids and their inhibitory effects on oleic acid-induced hepatic steatosis in vitro” (Eur J Med Chem, 2011) can be followed below.

The subject of data set [1] is HepG2. Description: Inhibition of oleic acid-induced triglyceride over-accumulation in human HepG2 cells incubated for 24 hrs relative to untreated control. The data set is classed as functional. Conditions: for IC30: Homo sapiens, HepG2, 24 h.
For data set [2], the system named is HepG2. Nature of the data set: Antioxidant activity in human HepG2 cells assessed as reduction of oleic acid-induced ROS generation incubated for 24 hrs by DHCF-DA based fluorimetric assay relative to untreated control. The data set is classed as functional. Conditions: for IC30: Homo sapiens, HepG2, 24 h.
The test system of data set [3] is HepG2. Description: Cytotoxicity against human HepG2 cells incubated for 24 hrs by MTT assay. The class given is cell-based. Conditions: hepg2, 24 h. In general terms: Tetrazolium assays rely on reduction of a dye to a coloured formazan, in cell work by metabolically active cells.
A short description of data set [4]: Reducing activity assessed as chlorogenic acid equivalent per mmol standard at 37 degC for 30 mins by Folin-Ciocalteu reagent assay.
A short description of data set [5]: Reducing activity by cyclic voltammetry.
The subject of data set [6] is HepG2. Nature of the data set: Proxidant activity in human HepG2 cells assessed as increase in oleic acid-induced ROS generation at >10 uM incubated for 24 hrs by […] based fluorimetric assay relative to untreated control. The class given is cell-based. The conditions noted are these: hepg2, 24 h.
In data set [7] the test system is HepG2. Description: Proxidant activity in human HepG2 cells assessed as increase in oleic acid-induced ROS generation at >25 uM incubated for 24 hrs by […] based fluorimetric assay relative to untreated control. The data set is classed as cell-based. Conditions: hepg2, 24 h.

Active and inactive are the calls of the source. No cut-off for these calls is given here.

On to `O=c1cc(-c2ccccc2)oc2cc(O)cc(O)c12` [CHRYSIN], for which the Imax entry with HepG2 [1] and in the data set on HepG2 [2] was “inactive” throughout. The Activity in the data set with HepG2 [3] is more than 20 µM; in data set [4], 0.16 mM; in data set [5], 0.81 V.

As a reminder, the IC30 is the point of the concentration-response curve where the effect stands at 30%. `O=c1c(O)c(-c2cc(O)c(O)c(O)c2)oc2cc(O)cc(O)c12` [MYRICETIN]: the Imax is recorded as 24.8% in the data set on HepG2 [1] and 34.5% with HepG2 [2]. Besides, the IC30 in the data set on HepG2 [1] is more than 150 µM; in the data set on HepG2 [2] it was 123 µM. In addition, the inhibition result in the data set with HepG2 [2] is “Dose-dependent effect”. In addition, the Activity in the data set with HepG2 [3] is more than 200 µM; in data set [4], 1.02 mM; in data set [5] it was 0.115 V.

As to `O=c1c(O)c(-c2ccc(O)cc2)oc2cc(O)cc(O)c12` [KAEMPFEROL], the Imax with HepG2 [1] worked out at 58.6%; in the data set with HepG2 [2] it was 42.2%. Further, the IC30 with HepG2 [1] came to 121 µM; in the data set on HepG2 [2] it was 68.7 µM. In addition, in the data set with HepG2 [2], the inhibition entry is “Dose-dependent effect”. In addition, the Activity was more than 200 µM in the data set with HepG2 [3], 1.08 mM in data set [4] and 0.189 V in data set [5].

Consider `O=c1c(O)c(-c2ccc(O)c(O)c2)oc2cc(O)cc(O)c12` [QUERCETIN], for which the Imax with HepG2 [1] came out at 46.1%; with HepG2 [2], 43.6%. Besides, the IC30 turned out to be 14.9 µM with HepG2 [1] and 30.8 µM in the data set on HepG2 [2]. In addition, the inhibition result in the data set with HepG2 [2] is “Dose-dependent effect”. For the same compound, the figures for the Activity (in the data set on HepG2 [3]; in data set [4]; in data set [5]) were more than 75 µM, 1.24 mM and 0.218 V, respectively.

For `O=c1c(-c2ccc(O)cc2)coc2cc(O)cc(O)c12` [GENISTEIN], the Imax result with HepG2 [1] was “inactive”. In addition, the Imax in the data set with HepG2 [2] came to 17.3%. For the same compound, the IC30 in the data set with HepG2 [2] was more than 50 µM. In addition, the figures for the Activity (in the data set with HepG2 [3]; in data set [4]; in data set [5]) were more than 50 µM, 0.33 mM and 0.614 V, respectively.

For the compound `O=C1c2c(O)cc(O)cc2O[C@H](c2ccc(O)c(O)c2)[C@H]1O` [(+)-TAXIFOLIN], the Imax in the data set on HepG2 [1] was 43.4%; in the data set on HepG2 [2] it was 40.1%. The 30% effect concentration (IC30) in the data set on HepG2 [1] stood at 63.6 µM; with HepG2 [2], 40 µM. For the same compound, the Activity is more than 200 µM in the data set on HepG2 [3], 0.99 mM in data set [4] and 0.248 V in data set [5].

For `O=c1cc(-c2ccc(O)c(O)c2)oc2cc(O)cc(O)c12` [LUTEOLIN], the Imax amounted to 24.2% in the data set with HepG2 [1] and 24% in the data set with HepG2 [2]. In addition, the IC30 in the data set on HepG2 [1] and in the data set on HepG2 [2] was more than 20 µM in each case. Moreover, the Activity with HepG2 [3] was more than 20 µM; in data set [4], 0.91 mM; in data set [5], 0.269 V.

`COc1cc(-c2oc3cc(O)cc(O)c3c(=O)c2O)ccc1O` [ISORHAMNETIN]: the figures for the Imax in the data set with HepG2 [1] and in the data set with HepG2 [2] were 41.8% and 43.8%, respectively. Moreover, the figures for the IC30 with HepG2 [1] and in the data set with HepG2 [2] were 90.5 µM and 69.3 µM, respectively. Further, the inhibition result with HepG2 [2] was “Dose-dependent effect”. For the same compound, the Activity was more than 200 µM with HepG2 [3], 1.04 mM in data set [4] and 0.115 V in data set [5].

For the compound `O=C(O[C@@H]1Cc2c(O)cc(O)cc2O[C@@H]1c1cc(O)c(O)c(O)c1)c1cc(O)c(O)c(O)c1` [EPIGALOCATECHIN GALLATE], the Imax amounted to 54.2% with HepG2 [1] and 40.2% with HepG2 [2]. The IC30 worked out at 6.3 µM in the data set on HepG2 [1] and 26.2 µM in the data set on HepG2 [2]. Besides, the inhibition result with HepG2 [2] is “Dose-dependent effect”. Further, the Activity with HepG2 [3] was more than 200 µM; in data set [4] it was 2.2 mM; in data set [5], 0.125 V.

Consider `Oc1cc(O)c2c(c1)O[C@H](c1ccc(O)c(O)c1)[C@@H](O)C2` [CIANIDANOL], for which the Imax was found to be 28.7% in the data set with HepG2 [1] and 29.8% with HepG2 [2]. For the same compound, the IC30 in the data set with HepG2 [1] and with HepG2 [2] was more than 250 µM each time. Also, the Activity in the data set with HepG2 [3] was more than 250 µM; in data set [4], 0.77 mM; in data set [5] it was 0.285 V.

Turning to `C[C@@H]1O[C@@H](OC[C@H]2O[C@@H](Oc3c(-c4ccc(O)c(O)c4)oc4cc(O)cc(O)c4c3=O)[C@H](O)[C@@H](O)[C@@H]2O)[C@H](O)[C@H](O)[C@H]1O` [RUTIN], the Imax was 28.2% with HepG2 [1] and 25.2% in the data set with HepG2 [2]. Besides, the IC30 in the data set with HepG2 [1] was more than 200 µM; in the data set with HepG2 [2], more than 250 µM. The inhibition entry in the data set on HepG2 [2] is “Dose-dependent effect”. In addition, the Activity is more than 250 µM in the data set on HepG2 [3], 1.35 mM in data set [4] and 0.306 V in data set [5].

As to `O=c1c(O)c(-c2ccccc2)oc2cc(O)cc(O)c12` [GALANGIN], the Imax result in the data set on HepG2 [1] was “inactive”. The Imax with HepG2 [2] turned out to be 12.4%. The IC30 in the data set with HepG2 [2] is more than 50 µM. In addition, the Activity was more than 50 µM with HepG2 [3], 0.75 mM in data set [4] and 0.354 V in data set [5].

Take `Oc1cc(O)c2c(c1)O[C@H](c1ccc(O)c(O)c1)[C@H](O)C2` [(-)-EPICATECHIN]: the Imax in the data set on HepG2 [1] is on record as 46.6%; with HepG2 [2], 38.1%. The figures for the IC30 in the data set with HepG2 [1] and in the data set with HepG2 [2] were 166 µM and 103 µM, respectively. Also, the Activity is more than 250 µM in the data set with HepG2 [3] and 1.05 mM in data set [4].

With `O=C1C[C@@H](c2ccc(O)cc2)Oc2cc(O)cc(O)c21` [NARINGENIN], the Imax result in the data set with HepG2 [1] and in the data set on HepG2 [2] was “inactive” in each case. Further, the Activity is more than 200 µM in the data set on HepG2 [3], 0.55 mM in data set [4] and 0.71 V in data set [5].

On to `O=c1cc(-c2ccc(O)cc2)oc2cc(O)cc(O)c12` [APIGENIN], for which the Imax result with HepG2 [1] and in the data set with HepG2 [2] was “inactive” throughout. The Activity in the data set with HepG2 [3] was more than 150 µM; with HepG2 [6] it was “Toxic”; in the data set with HepG2 [7] it was “Toxic”; in data set [4] it was 0.39 mM; in data set [5], 0.623 V.

For `COc1ccc([C@@H]2CC(=O)c3c(O)cc(O)cc3O2)cc1O` [HESPERETIN], in the data set with HepG2 [1], the Imax entry is “inactive”. The Imax in the data set with HepG2 [2] is listed as 23%. In the data set on HepG2 [2], the 30% effect concentration (IC30) was more than 150 µM. For the same compound, the Activity was more than 100 µM with HepG2 [3], 0.53 mM in data set [4] and 0.556 V in data set [5].

For `O=c1c(-c2ccc(O)cc2)coc2cc(O)ccc12` [DAIDZEIN], the Imax is recorded as 34.5% in the data set with HepG2 [1] and 37.5% in the data set with HepG2 [2]. Besides, the IC30 was 140 µM in the data set with HepG2 [1] and 135 µM in the data set on HepG2 [2]. Besides, the inhibition entry with HepG2 [2] was “Dose-dependent effect”. In addition, the Activity in the data set with HepG2 [3] was more than 200 µM; in data set [4], 0.4 mM; in data set [5], 0.596 V.
